Publication PMC7217877, “N-AS-triggered SPMs are direct regulators of microglia in a model of Alzheimer’s disease” (Nature Communications, 2020)
Values joined by “and” are separate entries in the source; they are usually repeats but may differ in a detail not shown here. Identical values can stand only once.

Experiments:
APP/PS1 mice = experiment: Caspase-3+ cells, apoptosis (Supplementary Fig 7o); format: in vivo, mouse
Description: Thioflavin S (Sigma-Aldrich) staining was carried out according to previously described procedures. We used 6E10 (mouse, 1:100, Signet, SIG39300), anti-20G10 (mouse, 1:1000, provided by D. R. Howlett, GlaxoSmithKline, Harlow, Essex, UK) for Aβ42, anti-G30 (rabbit, 1:1000, provided by D. R. Howlett) for Aβ40, SMA (mouse, 1:400, Sigma-Aldrich, A2547), AT8 (mouse, 1:500, Thermo Fisher Scientific, MN1020), Caspase-3 (mouse, 1:200, Novus Biologicals, NB100-56708), ac-S565 (rabbit, 1:100), COX2 (mouse, 1:250, Thermo Fisher Scientific, 35-8200), Iba1 (rabbit, 1:500, Wako, 019-19941 and goat, Abcam, ab5076), NeuN (mouse, 1:500, Millipore, MAB177), GFAP (rabbit, 1:500, Dako, N1506 and chicken, 1:500, Abcam, ab4674), and Lamp1 (mouse, 1:200, Abcam, ab24170). The sections were analyzed with a laser-scanning confocal microscope (FV3000; Olympus) or with a BX51 microscope (Olympus). MetaMorph software (Molecular Devices) was used to quantification. Three-dimensional reconstruction of microglia was recorded and analyzed using IMARIS software (Bitplane)[11]. For the analysis of age-dependent microglial COX2^+ CX3CR1^+ cells in WT and APP/PS1 mice, COX2 (rabbit, 1:100, Abcam, ab15191) and CX3CR1 (mouse, 1:100, BioLegend, 149008) antibody were used and the images were acquired on Alexa 488 and APC Channel with performed using Operetta CLS and Analysis Software 4.5 (Perkin-Elmer). […]

COX2 S565A = molecular target: T1, COX2 S565A (Homo sapiens, UniProt P35354, S565A); experiment: filter binding assay of [14C] N-AS to COX2; conditions: 0.2 uM, replicates
T1 construct: His (N); made in house
T1 sequence (P35354 18-604 S565A): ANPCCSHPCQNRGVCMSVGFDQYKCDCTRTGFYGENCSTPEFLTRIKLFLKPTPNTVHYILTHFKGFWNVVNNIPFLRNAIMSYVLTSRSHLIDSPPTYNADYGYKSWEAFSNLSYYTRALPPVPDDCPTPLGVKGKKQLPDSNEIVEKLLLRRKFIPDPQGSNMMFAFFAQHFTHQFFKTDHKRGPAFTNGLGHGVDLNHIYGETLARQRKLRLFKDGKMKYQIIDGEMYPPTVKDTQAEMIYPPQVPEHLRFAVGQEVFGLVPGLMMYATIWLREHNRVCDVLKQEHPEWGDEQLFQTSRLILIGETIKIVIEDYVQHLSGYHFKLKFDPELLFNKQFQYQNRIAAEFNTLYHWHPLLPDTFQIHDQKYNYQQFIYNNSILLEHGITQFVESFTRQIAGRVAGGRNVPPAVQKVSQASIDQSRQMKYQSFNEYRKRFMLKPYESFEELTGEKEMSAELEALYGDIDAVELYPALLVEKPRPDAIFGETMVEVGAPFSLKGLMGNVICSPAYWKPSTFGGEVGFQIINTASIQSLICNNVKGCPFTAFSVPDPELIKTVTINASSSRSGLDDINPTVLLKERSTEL

## CCCCCCCCCCCCC/C=C/[C@@H](O)[C@H](CO)NC(C)=O [N-AS, N-((2S,3R,E)-1,3-Dihydroxyoctadec-4-en-2-yl)acetamide]
APP/PS1 mice; APP/PS1 + N-AS, sFig 7o
  Caspase-3+ cells: 0.7653 and 0.8763 and 0.6283 and 0.6646 and 0.8616 and 0.8325
APP/PS1 mice; N-AS vs vehicle APP/PS1
  apoptosis (Caspase-3+ cells): apoptosis was not changed
COX2 S565A
  binding velocity (Vbinding): 0.187 nM/min and 0.075 nM/min and 0.292 nM/min
